In the experiment the test system is serum uric acid level. As to the kind of experiment: Serum uric acid level-lowering action. The format is in vivo. As to conditions: male wister rats, oral 0.3 mg/5 mL/Kg in 0.5% MC, blood collected six hours after administration, vs MC group. As to the method: Serum Uric Acid Level-Lowering Action
To male wister rats of 7 weeks old (4 rats per group) was orally administered compulsorily a test substance suspended in 0.5% aqueous solution of methyl cellulose (MC) in such an amount as to provide 0.3 mg/5 mL/Kg by using a stomach sonde. Six hours after the administration of the test substance, a blood sample was collected from the orbital vein. After allowing to stand at room temperature for 1 hour, the blood sample was centrifuged at 2000×g for 10 minutes to collect serum. […] Lowering rate of serum uric acid level (%)=(1-average serum uric acid level of the group administered with test compound/average serum uric acid level of the group administered with MC)×100

In the case of `Cc1ccc(S(=O)(=O)O)cc1.N#Cc1cc(-c2nc(-c3ccncc3)n[nH]2)ccn1` [Example 2, 5-(2-cyano-4-pyridyl)-3-(4-pyridyl)-1,2,4-triazole p-toluenesulfonate], the “Lowering rate of serum uric acid level” value is 51.1%.
